The results in this text go back to patent publication US5792784A, “Coupling product obtained from histamine and an amino acid” (Babizhayev; Marc, priority 1993, dated 1998).

The nature of test [1]: "Peroxidase" type activity on liposome model: reduction of phosphatidylcholine hydroperoxides (PC-OOH). In kind it is biochemical. As for the experimental part: The "peroxidase" type activity also has been evaluated on a "liposome" model. The phosphatidylcholine hydroperoxides (PC-OOH) are prepared according to a similar procedure to the one already described for the linoleic acid monoperoxide.
The peroxide species reduction is followed by dosing the remaining peroxides according to the method laid down by Hicks M and Gebicki J. M.--Anal. Biochem, vol 99, (1979), p. 249-253.

Test [2] deals with cutaneous connective tissue. In words: Repairing of the cutaneous connective tissue after incision in rat (histology). Type of test: in vivo, Wistar rats. As for the experimental part: This experiment has been carried out on a batch of 12 Wistar rats. An incision of a length of 12 mm involving in depth epiderm and derm as a whole was performed. At the end of the healing, the rats are then treated by topical applications of β-alanyl-histadine for three weeks. At the same time, a reference batch of 12 rats have been treated with placebo for the same lasting time of experiment.

The next test has as its system murine splenocytes. Briefly: Immunostimulating activity in vitro on murine splenocytes (tritiated thymidine incorporation). Type of test: cell-based. The source says:
The procedure is extracted from: J. Kunert-Radek, H. Stepien, K. Lyson and M. Pawlikowski--"Effects of calcium channel modulators on the proliferation of mouse spleen lymphocytes in vitro"--Agents and Actions, vol. 29, Nos 3-4 (1990), p. 254-258.
The cell proliferation is followed by the measurement of the extent of incorporation of tritriated thymidine in the cells, expressed in numbers of desintegrations per mn, deducted from the background.
The results obtained with an immunostimulator of reference, concanavaline A, are given as a comparison.
The immunostimulating effect is expressed by an Index of Stimulation (IS) [formula]
The given values are corresponding to the average of three measures.

Take `NCCC(=O)NCCc1c[nH]cn1` [β-alanyl-histamine]: the “number of moles of PC-OOH reduced/initial number of moles of PC/hour” value in test [1] (10 mM) was 0.77 × 10^-3 moles of PC-OOH reduced/initia. In test [1] (25 mM), the “number of moles of PC-OOH reduced/initial number of moles of PC/hour” value is given as 1.56 × 10^-3 moles of PC-OOH reduced/initia. Besides, in test [2] (capillary layer versus deep layer), the “density and aspect of the constituents of the connective tissue” value was “obviously the same in the capillary layer and in the deep layer”. The “thin elastic or reticulin fibres” value in test [2] (dermic superficial layers) is on record as “generally more numerous in the dermic superficial layers”. Moreover, in test [2] (toluidine blue colouring), the fundamental substance result is recorded as “more abundant than normal”. Also, in test [2] (topical, after 3 weeks), the horny-layers entry is given as “identical to the ones of the surrounding normal epiderm”, the restoration of epiderm entry is on record as “The epiderm is well restored” and the visibility of scar entry is “the scar is slightly or even not visible on the skin surface”. In the test with murine splenocytes, the “concentration of maximum immunostimulating effect” value was 25 µg/mL and the “immunostimulating activity versus reference mitogen” value is reported as “comparable with a reference mitogen, concanavaline A”. In addition, the fold induction at 2.5 µg/mL with murine splenocytes (Mus musculus, Splenocyte, 2.5 μg/ml, average of three measures, read-out: Index of Stimulation (IS)) came out at 4.8. Also, the fold induction at 5 µg/mL in the test on murine splenocytes (Mus musculus, Splenocyte, 5 μg/ml, average of three measures, read-out: Index of Stimulation (IS)) was determined as 15.7. Also, in the test on murine splenocytes (Mus musculus, Splenocyte, 10 μg/ml, average of three measures, read-out: Index of Stimulation (IS)), the fold induction at 10 µg/mL stood at 16.9. The fold induction at 25 µg/mL in the test with murine splenocytes (Mus musculus, Splenocyte, 25 μg/ml, average of three measures, read-out: Index of Stimulation (IS)) amounted to 18.6. The fold induction at 50 µg/mL in the test on murine splenocytes (Mus musculus, Splenocyte, 50 μg/ml, average of three measures, read-out: Index of Stimulation (IS)) worked out at 12.8.
